A short description of series [1]: Half-life in human liver microsomes. Type of series: in vitro ADME. The note with it: human, liver microsomes, NADPH, 37° C., read-out: G: half-life human liver microsomes. The procedure:
(§1) Half-life Human Microsomes: Compounds were evaluated for stability in human liver microsomes. A 10 mM stock solution of the compound being evaluated was prepared in DMSO and diluted with water:acetonitrile (1:1) to a concentration of 1 mM. A working concentration of 100 μM was prepared by further dilution with water:acetonitrile (1:1). To make the preincubation mixture, 2.5 μL of the diluted compound was combined with 75 μL of human liver microsomes at 3.33 mg/mL, and 85 μL of 100 mM potassium phosphate buffer, and this mixture was pre-incubated for 10 min at 37° C. To make the 60 minute mixture without cofactor, 32.5 μL of the preincubation mixture was combined with 17.5 μL of 100 mM potassium phosphate buffer and incubated for 60 min at 37° C. To make the 0 min sample with cofactor (NADPH), 16.25 μL of the preincubation mixture was combined with 200 μL of acetonitrile containing internal standard and 8.75 μL of cofactor (NADPH). To make the incubation mixture, 62 μL of cofactor (2.85 mM) was combined with the remaining incubation mixture, and incubated for 60 min at 37° C. To prepare the sample mixture to be evaluated, 25 μL incubation mixture was combined with 200 μL of acetonitrile containing internal standard and vortexed for 5 min at 1200 rpm, then centrifuged for 10 min at 4000 rpm. The supernatant was diluted 2 fold with water and injected on LC-MS/MS. The sample mixture was evaluated by LC-MS/MS using 10 mM ammonium acetate with 0.1% FA as the aqueous mobile phase, and methanol as the organic mobile phase.

Series [2] is described as follows: Kinetic solubility. Type of series: physicochemical. The note with it: aqueous buffer, kinetic from dmso stock, pH 7.4 buffer, room temperature, 1.0% DMSO, read-out: I: kinetic solubility class. The procedure: Kinetic Solubility Procedure: A 10 mM stock solution of a compound was prepared in DMSO, then 4 μL of the stock was added to a deep well plate containing 396 μL of pH 7.4 buffer. The sample plate was vortexed at 800 rpm for 24 h on thermomixer at room temperature. The plate was sealed well during the incubation process. The DMSO content in the sample was 1.0%. The concentration of the evaluated compound in the final incubation was 100 μM. At the end of the incubation period, the sample plate was centrifuged at 4000 rpm for 10 min and analyzed in LC-UV against a calibration curve (CC). Values <10 μg/mL=Low; 10 to 60 μg/mL=Medium; >60 μg/mL=High.

The nature of series [3]: Half-life in mouse liver microsomes. The class given is in vitro ADME. The note with it: mouse, liver microsomes, read-out: H: half-life of mouse liver microsomes. As to the method:
as §1
Half-life Mouse Microsomes: Compounds were evaluated in mouse liver microsomes following a similar procedure as described above for human liver microsomes. A similar procedure could be used to evaluate compounds in rat liver microsomes.

≈ marks a conversion by molar mass, not a printed value.

Regarding `CC(C)(C)c1cc(-c2cncc(-c3ccc(C(=O)N4CCC(O)CC4)cc3Cl)c2F)ccn1`, the half-life at 1 µM in series [1] stood at 9.52 min; in series [3], 39.2 min. Moreover, the kinetic solubility at 24 h in series [2] fell in the range of 10 to 60 µg/mL (≈ 21.4 to 128 µM).
Consider `CC(C)(C)c1cc(-c2cncc(-c3ccc(NC(=O)OCCN4CCCC4)cc3Cl)c2)ccn1`, for which the half-life at 1 µM turned out to be 53.2 min in series [1] and 14.4 min in series [3]. Besides, in series [2], the solubility (kinetic) at 24 h was in the range of 10 to 60 µg/mL (≈ 20.9 to 125 µM).
The matching figures for `COc1ncc(-c2ccc(C(=O)N3CCC(O)CC3)cc2Cl)cc1-c1ccnc(C(C)(C)C)c1`: 16.1 min, 38.5 min and 10 to 60 µg/mL (≈ 20.8 to 125 µM).
The matching figures for `Cc1ncc(-c2ccc(C(=O)N3CCC(O)CC3)cc2Cl)cc1-c1ccnc(C(C)(C)C)c1`: 7.8 min, 41.7 min and 10 to 60 µg/mL (≈ 21.6 to 129 µM).
In the same order, the values of `O=C(c1ccc(-c2cncc(-c3ccnc(C4CC4)c3)c2)c(Cl)c1)N1CCC(F)C(O)C1` (stereo not drawn) are 20.5 min, 68.3 min and less than 10 µg/mL.
On to `O=C(Nc1ccc(-c2cncc(-c3ccnc4c3OCCO4)c2)c(Cl)c1)OC1CC1`, for which the half-life at 1 µM in series [1] turned out to be 9.94 min; in series [3] it was 16.4 min. The solubility (kinetic) at 24 h in series [2] was less than 10 µg/mL.
In the case of `O=C(c1ccc(-c2cncc(-c3ccnc(C4CC4)c3)c2)c(Cl)c1)N1CCC(F)CC1`, the half-life at 1 µM turned out to be 7.28 min in series [1] and 12.4 min in series [3]. The kinetic solubility at 24 h in series [2] is 10 to 60 µg/mL (≈ 22.9 to 138 µM).
The matching figures for `O=C(c1ccc(-c2cncc(-c3ccnc(C4CC4)c3)c2)c(Cl)c1)N1CCC[C@H]1CO`: 16.2 min, 66.7 min and 10 to 60 µg/mL (≈ 23 to 138 µM).
In the same order, the values of `O=C(c1ccc(-c2cncc(-c3ccnc(C4CC4)c3)c2)c(Cl)c1)N1CC[C@H](O)C1` are 39.2 min, 87.2 min and 10 to 60 µg/mL (≈ 23.8 to 143 µM).
In the same order, the values of `O=C(c1ccc(-c2cncc(-c3ccnc(C4CC4)c3)c2)c(Cl)c1)N1CC2CCC(C1)C2O` (stereo not drawn) are 21.3 min, 42.4 min and 10 to 60 µg/mL (≈ 21.7 to 130 µM).
Take `CC(C)(C)c1cc(-c2cncc(-c3ccc(C(=O)N4CCC(O)C(O)CC4)cc3Cl)c2)ccn1` (stereo not drawn): the half-life at 1 µM in series [1] worked out at 27.7 min; in series [3], 120 min. Moreover, the solubility (kinetic) at 24 h in series [2] was in the range of 10 to 60 µg/mL (≈ 20.8 to 125 µM).
For the compound `CS(=O)(=O)Nc1ccc(-c2cncc(-c3ccnc4c3OCCO4)c2)c(Cl)c1`, the half-life at 1 µM in series [1] was 37.4 min; in series [3] it was 104 min. The kinetic solubility at 24 h in series [2] is less than 10 µg/mL.
For the compound `CC(C)OC(=O)Nc1ccc(-c2cncc(-c3ccnc(C(C)(C)O)c3)c2)c(Cl)c1`, the half-life at 1 µM in series [1] and in series [3] was 120 min each time. The solubility (kinetic) at 24 h in series [2] was less than 10 µg/mL.
In the case of `CC(C)(O)c1cc(-c2cncc(-c3ccc(NS(C)(=O)=O)cc3Cl)c2)ccn1`, the values for the half-life at 1 µM in series [1] and in series [3] were 116 min and 120 min, respectively. In series [2], the solubility (kinetic) at 24 h was less than 10 µg/mL.
`CC(C)OC(=O)Nc1ccc(-c2cncc(-c3ccnc(C4(F)CCC4)c3)c2)c(Cl)c1`: the half-life at 1 µM in series [1] amounted to 55.9 min; in series [3], 97.9 min. Also, the solubility (kinetic) at 24 h in series [2] was less than 10 µg/mL.
As for `CC(C)(CF)c1cc(-c2cncc(-c3ccc(C(=O)N4CCC(O)CC4)cc3Cl)c2)ccn1`, the half-life at 1 µM is 41.3 min in series [1] and 77.5 min in series [3]. In addition, the solubility (kinetic) at 24 h in series [2] is 10 to 60 µg/mL (≈ 21.4 to 128 µM).
In the same order, the values of `CC(C)(C)c1cc(-c2cncc(-c3ccc(C(=O)N4CCC(=O)C(F)C4)cc3Cl)c2)ccn1` (stereo not drawn) are 11.2 min, 1.94 min and 10 to 60 µg/mL (≈ 21.5 to 129 µM).
Consider `CC(C)(C)c1cc(-c2cncc(-c3ccc(C(=O)N4CCC[C@@H]4C(C)(C)O)cc3Cl)c2)ccn1`, for which the half-life at 1 µM in series [1] was determined as 14 min; in series [3] it was 64.3 min. Further, the kinetic solubility at 24 h in series [2] was in the range of 10 to 60 µg/mL (≈ 20.9 to 126 µM).
In the same order, the values of `CC(C)(C)c1cc(-c2cncc(-c3ccc(C(=O)N4CCC[C@H]4C(C)(C)O)cc3Cl)c2)ccn1` are 16.8 min, 27.4 min and 10 to 60 µg/mL (≈ 20.9 to 126 µM).
In the same order, the values of `CC(C)(C)c1cc(-c2cncc(-c3ccc(C(=O)N4CCC(O)C(F)C4)cc3Cl)c2)ccn1` (stereo not drawn) are 120 min, 98.5 min and 10 to 60 µg/mL (≈ 21.4 to 128 µM).
On to `CC1CC(O)CC(C)N1C(=O)c1ccc(-c2cncc(-c3ccnc(C(C)(C)C)c3)c2)c(Cl)c1` (stereo not drawn), for which the half-life at 1 µM in series [1] was found to be 6.33 min; in series [3], 47.8 min. In series [2], the solubility (kinetic) at 24 h lay in the range of 10 to 60 µg/mL (≈ 20.9 to 126 µM).
Take `CC(C)(C)c1cc(-c2cncc(-c3ccc(C(=O)N4CCC(O)(O)C(F)(F)C4)cc3Cl)c2)ccn1`: the values for the half-life at 1 µM in series [1] and in series [3] were 43.7 min and 32.5 min, respectively. Moreover, the solubility (kinetic) at 24 h in series [2] fell in the range of 10 to 60 µg/mL (≈ 19.9 to 120 µM).
The matching figures for `O=C(c1ccc(-c2cncc(-c3ccnc(C4(O)CCC4)c3)c2)c(Cl)c1)N1CCC(O)CC1`: 76.7 min, 120 min and 10 to 60 µg/mL (≈ 21.6 to 129 µM).
The matching figures for `CC(C)(C)c1cc(-c2cncc(-c3ccc(C(=O)N(CCCO)CCCO)cc3Cl)c2)ccn1`: 9.51 min, 40.4 min and 10 to 60 µg/mL (≈ 20.7 to 124 µM).
As for `O=C(c1ccc(-c2cncc(-c3ccnc(C4(F)CCC4)c3)c2)c(Cl)c1)N1CCC(O)CC1`, the half-life at 1 µM was 32.3 min in series [1] and 54.4 min in series [3]. The kinetic solubility at 24 h in series [2] was 10 to 60 µg/mL (≈ 21.5 to 129 µM).
The matching figures for `CC(C)(C)c1cc(-c2cncc(-c3ccc(C(=O)N4CCC(O)C(F)(F)C4)cc3Cl)c2)ccn1` (stereo not drawn): 28.1 min, 88.6 min and 10 to 60 µg/mL (≈ 20.6 to 123 µM).
The matching figures for `CC(C)(C)c1cc(-c2cncc(-c3ccc(C(=O)N4CCC(F)C(O)C4)cc3Cl)c2)ccn1` (stereo not drawn): 12.2 min, 21.7 min and 10 to 60 µg/mL (≈ 21.4 to 128 µM).
As for `CC(C)(C)c1cc(-c2cncc(-c3ccc(C(=O)N4CCC4C(C)(C)O)cc3Cl)c2)ccn1` (stereo not drawn), the half-life at 1 µM in series [1] is 59 min; in series [3], 38.3 min. Further, the solubility (kinetic) at 24 h in series [2] fell in the range of 10 to 60 µg/mL (≈ 21.6 to 129 µM).
As to `CC(C)(C)c1cc(-c2cncc(-c3ccc(C(=O)N4CC(C(C)(C)O)C4)cc3Cl)c2)ccn1`, the half-life at 1 µM in series [1] worked out at 7.35 min; in series [3], 12.4 min. In series [2], the solubility (kinetic) at 24 h was in the range of 10 to 60 µg/mL (≈ 21.6 to 129 µM).
In the same order, the values of `CS(=O)(=O)Nc1ccc(-c2cncc(-c3ccnc(C4CC4)c3)c2)c(Cl)c1` are 112 min, 86.7 min and less than 10 µg/mL.
Turning to `CC(C)OC(=O)Nc1ccc(-c2cncc(-c3ccnc(C4CC4)c3)c2)c(Cl)c1`, the results for the half-life at 1 µM in series [1] and in series [3] were 120 min and 81.1 min, respectively. For the same compound, the solubility (kinetic) at 24 h in series [2] is less than 10 µg/mL.
Take `CC(C)OC(=O)N(C)c1ccc(-c2cncc(-c3ccnc(C(C)(C)C)c3)c2)c(Cl)c1`: the half-life at 1 µM in series [1] was determined as 63.6 min; in series [3] it was 105 min. In series [2], the solubility (kinetic) at 24 h was less than 10 µg/mL.
As for `CC(C)(C)c1cc(-c2cncc(-c3ccc(C(=O)N4CC5(CC(O)C5)C4)cc3Cl)c2)ccn1`, the half-life at 1 µM came out at 1.79 min in series [1] and 120 min in series [3]. Besides, the solubility (kinetic) at 24 h in series [2] lay within 10 to 60 µg/mL (≈ 21.6 to 130 µM).
As to `CC(C)(C)c1cc(-c2cncc(-c3ccc(C(=O)N4CCC[C@@H]4CO)cc3Cl)c2)ccn1`, the half-life at 1 µM in series [1] amounted to 10.1 min; in series [3], 32 min. The solubility (kinetic) at 24 h in series [2] fell in the range of 10 to 60 µg/mL (≈ 22.2 to 133 µM).
For the compound `CC(C)(C)c1cc(-c2cncc(-c3ccc(C(=O)N4CCC[C@H]4CO)cc3Cl)c2)ccn1`, the half-life at 1 µM in series [1] was found to be 5.52 min; in series [3] it was 28.6 min. The kinetic solubility at 24 h in series [2] was 10 to 60 µg/mL (≈ 22.2 to 133 µM).
`CC1(O)CCN(C(=O)c2ccc(-c3cncc(-c4ccnc(C(C)(C)C)c4)c3)c(Cl)c2)C1` (stereo not drawn): the values for the half-life at 1 µM in series [1] and in series [3] were 12.9 min and 28 min, respectively. Further, in series [2], the solubility (kinetic) at 24 h is 10 to 60 µg/mL (≈ 22.2 to 133 µM).
In the same order, the values of `CC(C)(C)c1cc(-c2cncc(-c3ccc(C(=O)N4CC[C@H](O)C4)cc3Cl)c2)ccn1` are 14.4 min, 38.7 min and 10 to 60 µg/mL (≈ 22.9 to 138 µM).

(Values after US11718628B2, “SREBP inhibitors comprising a 6-membered central ring” (Capulus Therapeutics, LLC, priority 2018, dated 2023).)
